Reference: the NIST ThermoML archive (doi:10.1021/je9010568)
Numbers after ± are expanded uncertainties.

Assays:
[1] = Liquid
[2] = φn = volume fraction of the nth substance listed; details: Liquid, φ1 = 0.75

CC(O)CO (stereo not given) [1,2-propanediol]
[1]
Details | specific volume [m3/kg]
273.15 K, 100 kPa, Vibrating tube method | 0.0009519 ± 2.4e-07
274.15 K, 100 kPa, Vibrating tube method | 0.0009525 ± 2.4e-07
275.15 K, 100 kPa, Vibrating tube method | 0.0009532 ± 2.4e-07
276.15 K, 100 kPa, Vibrating tube method | 0.0009538 ± 2.4e-07
277.15 K, 100 kPa, Vibrating tube method | 0.0009544 ± 2.4e-07
278.15 K, 100 kPa, Vibrating tube method | 0.0009551 ± 2.4e-07
279.15 K, 100 kPa, Vibrating tube method | 0.0009557 ± 2.4e-07
280.15 K, 100 kPa, Vibrating tube method | 0.0009563 ± 2.4e-07
281.15 K, 100 kPa, Vibrating tube method | 0.000957 ± 2.4e-07
282.16 K, 100 kPa, Vibrating tube method | 0.0009576 ± 2.4e-07
283.16 K, 100 kPa, Vibrating tube method | 0.0009583 ± 2.4e-07
284.16 K, 100 kPa, Vibrating tube method | 0.0009589 ± 2.4e-07
285.16 K, 100 kPa, Vibrating tube method | 0.0009596 ± 2.4e-07
286.16 K, 100 kPa, Vibrating tube method | 0.0009602 ± 2.4e-07
287.16 K, 100 kPa, Vibrating tube method | 0.0009609 ± 2.4e-07
287.78 K, 298200 kPa, Bellows volumetry | 0.0008796 ± 1.4e-06
287.98 K, 348900 kPa, Bellows volumetry | 0.0008706 ± 1.8e-06
288.05 K, 100 kPa, Vibrating tube method | 0.0009615 ± 2.4e-07
288.05 K, 49200 kPa, Bellows volumetry | 0.0009434 ± 4.3e-07
288.1 K, 299700 kPa, Bellows volumetry | 0.0008829 ± 1.3e-06
288.11 K, 148700 kPa, Bellows volumetry | 0.0009148 ± 1.1e-06
288.12 K, 198400 kPa, Bellows volumetry | 0.0009035 ± 1.4e-06
288.12 K, 248700 kPa, Bellows volumetry | 0.0008932 ± 2.3e-06
288.14 K, 99900 kPa, Bellows volumetry | 0.0009277 ± 8.3e-06
288.15 K, 99300 kPa, Bellows volumetry | 0.000926 ± 3.8e-06
288.16 K, 100 kPa, Vibrating tube method | 0.0009616 ± 2.4e-07
288.17 K, 49000 kPa, Bellows volumetry | 0.0009425 ± 2.7e-07
288.17 K, 349200 kPa, Bellows volumetry | 0.0008746 ± 1.3e-06
288.2 K, 249300 kPa, Bellows volumetry | 0.0008891 ± 7.1e-07
288.21 K, 148200 kPa, Bellows volumetry | 0.0009125 ± 4.4e-07
288.22 K, 99800 kPa, Bellows volumetry | 0.0009279 ± 1.3e-06
288.24 K, 199500 kPa, Bellows volumetry | 0.0009 ± 5.9e-07
288.28 K, 149900 kPa, Bellows volumetry | 0.0009146 ± 1.6e-06
288.29 K, 250100 kPa, Bellows volumetry | 0.0008927 ± 2e-06
288.31 K, 100 kPa, Vibrating tube method | 0.0009617 ± 2.4e-07
288.31 K, 199600 kPa, Bellows volumetry | 0.0009031 ± 2e-06
288.31 K, 299900 kPa, Bellows volumetry | 0.0008834 ± 9.9e-07
288.32 K, 349100 kPa, Bellows volumetry | 0.000875 ± 1.3e-06
288.34 K, 100 kPa, Vibrating tube method | 0.0009617 ± 2.4e-07
288.38 K, 48800 kPa, Bellows volumetry | 0.0009437 ± 3.6e-07
289.16 K, 100 kPa, Vibrating tube method | 0.0009622 ± 2.4e-07
290.15 K, 100 kPa, Vibrating tube method | 0.0009629 ± 2.4e-07
291.15 K, 100 kPa, Vibrating tube method | 0.0009636 ± 2.4e-07
292.15 K, 100 kPa, Vibrating tube method | 0.0009643 ± 2.4e-07
293.15 K, 100 kPa, Vibrating tube method | 0.0009649 ± 2.4e-07
294.15 K, 100 kPa, Vibrating tube method | 0.0009656 ± 2.4e-07
295.15 K, 100 kPa, Vibrating tube method | 0.0009663 ± 2.4e-07
296.16 K, 100 kPa, Vibrating tube method | 0.000967 ± 2.4e-07
297.16 K, 100 kPa, Vibrating tube method | 0.0009677 ± 2.4e-07
298.16 K, 100 kPa, Vibrating tube method | 0.0009684 ± 2.4e-07
299.16 K, 100 kPa, Vibrating tube method | 0.0009691 ± 2.4e-07
300.16 K, 100 kPa, Vibrating tube method | 0.0009698 ± 2.4e-07
301.16 K, 100 kPa, Vibrating tube method | 0.0009705 ± 2.4e-07
302.16 K, 100 kPa, Vibrating tube method | 0.0009712 ± 2.4e-07
303.16 K, 100 kPa, Vibrating tube method | 0.0009719 ± 2.4e-07
304.15 K, 100 kPa, Vibrating tube method | 0.0009726 ± 2.4e-07
305.15 K, 100 kPa, Vibrating tube method | 0.0009733 ± 2.4e-07
306.15 K, 100 kPa, Vibrating tube method | 0.000974 ± 2.4e-07
307.15 K, 100 kPa, Vibrating tube method | 0.0009747 ± 2.4e-07
308.15 K, 100 kPa, Vibrating tube method | 0.0009754 ± 2.4e-07
309.15 K, 100 kPa, Vibrating tube method | 0.0009761 ± 2.4e-07
310.15 K, 100 kPa, Vibrating tube method | 0.0009769 ± 2.4e-07
311.15 K, 100 kPa, Vibrating tube method | 0.0009776 ± 2.4e-07
312.15 K, 100 kPa, Vibrating tube method | 0.0009783 ± 2.4e-07
313.15 K, 100 kPa, Vibrating tube method | 0.000979 ± 2.4e-07

OCCO [1,2-ethanediol] + O
[2]
Details | specific volume [m3/kg]
273.15 K, 100 kPa, Vibrating tube method | 0.0009024 ± 5.3e-07
274.15 K, 100 kPa, Vibrating tube method | 0.0009029 ± 5.3e-07
275.15 K, 100 kPa, Vibrating tube method | 0.0009035 ± 5.3e-07
276.15 K, 100 kPa, Vibrating tube method | 0.000904 ± 5.3e-07
277.15 K, 100 kPa, Vibrating tube method | 0.0009045 ± 5.3e-07
278.15 K, 100 kPa, Vibrating tube method | 0.0009051 ± 5.3e-07
279.15 K, 100 kPa, Vibrating tube method | 0.0009056 ± 5.3e-07
280.15 K, 100 kPa, Vibrating tube method | 0.0009061 ± 5.3e-07
281.15 K, 100 kPa, Vibrating tube method | 0.0009067 ± 5.3e-07
282.15 K, 100 kPa, Vibrating tube method | 0.0009072 ± 5.3e-07
283.16 K, 100 kPa, Vibrating tube method | 0.0009078 ± 5.3e-07
284.16 K, 100 kPa, Vibrating tube method | 0.0009083 ± 5.3e-07
285.16 K, 100 kPa, Vibrating tube method | 0.0009088 ± 5.3e-07
286.16 K, 100 kPa, Vibrating tube method | 0.0009094 ± 5.3e-07
287.16 K, 100 kPa, Vibrating tube method | 0.0009099 ± 5.3e-07
288.09 K, 100 kPa, Vibrating tube method | 0.0009104 ± 5.3e-07
288.09 K, 148600 kPa, Bellows volumetry | 0.0008753 ± 5e-07
288.1 K, 98200 kPa, Bellows volumetry | 0.0008859 ± 5e-07
288.11 K, 100 kPa, Vibrating tube method | 0.0009104 ± 5.3e-07
288.11 K, 49700 kPa, Bellows volumetry | 0.0008965 ± 5e-07
288.12 K, 98200 kPa, Bellows volumetry | 0.0008844 ± 5e-07
288.13 K, 100 kPa, Vibrating tube method | 0.0009105 ± 5.3e-07
288.13 K, 49400 kPa, Bellows volumetry | 0.0008974 ± 5e-07
288.13 K, 349300 kPa, Bellows volumetry | 0.0008385 ± 5e-07
288.14 K, 149800 kPa, Bellows volumetry | 0.0008734 ± 5e-07
288.14 K, 199000 kPa, Bellows volumetry | 0.0008635 ± 5e-07
288.15 K, 199100 kPa, Bellows volumetry | 0.0008654 ± 5e-07
288.16 K, 100 kPa, Vibrating tube method | 0.0009105 ± 5.3e-07
288.16 K, 248700 kPa, Bellows volumetry | 0.0008558 ± 5e-07
288.17 K, 299900 kPa, Bellows volumetry | 0.0008461 ± 5e-07
288.19 K, 250600 kPa, Bellows volumetry | 0.0008544 ± 5e-07
288.29 K, 299600 kPa, Bellows volumetry | 0.0008463 ± 5e-07
288.31 K, 199200 kPa, Bellows volumetry | 0.0008639 ± 5e-07
288.31 K, 350200 kPa, Bellows volumetry | 0.0008386 ± 5e-07
288.32 K, 251000 kPa, Bellows volumetry | 0.0008545 ± 5e-07
288.33 K, 49300 kPa, Bellows volumetry | 0.0008968 ± 5e-07
288.33 K, 149300 kPa, Bellows volumetry | 0.0008737 ± 5e-07
288.33 K, 300300 kPa, Bellows volumetry | 0.0008464 ± 5e-07
288.33 K, 348300 kPa, Bellows volumetry | 0.0008391 ± 5e-07
288.36 K, 100900 kPa, Bellows volumetry | 0.0008842 ± 5e-07
289.16 K, 100 kPa, Vibrating tube method | 0.000911 ± 5.3e-07
290.16 K, 100 kPa, Vibrating tube method | 0.0009116 ± 5.3e-07
291.16 K, 100 kPa, Vibrating tube method | 0.0009121 ± 5.3e-07
292.15 K, 100 kPa, Vibrating tube method | 0.0009127 ± 5.3e-07
293.15 K, 100 kPa, Vibrating tube method | 0.0009132 ± 5.3e-07
294.15 K, 100 kPa, Vibrating tube method | 0.0009138 ± 5.3e-07
295.16 K, 100 kPa, Vibrating tube method | 0.0009143 ± 5.3e-07
296.16 K, 100 kPa, Vibrating tube method | 0.0009149 ± 5.3e-07
297.15 K, 100 kPa, Vibrating tube method | 0.0009155 ± 5.3e-07
298.15 K, 100 kPa, Vibrating tube method | 0.000916 ± 5.3e-07
299.15 K, 100 kPa, Vibrating tube method | 0.0009166 ± 5.3e-07
300.16 K, 100 kPa, Vibrating tube method | 0.0009172 ± 5.3e-07
301.16 K, 100 kPa, Vibrating tube method | 0.0009177 ± 5.3e-07
302.16 K, 100 kPa, Vibrating tube method | 0.0009183 ± 5.3e-07
303.16 K, 100 kPa, Vibrating tube method | 0.0009189 ± 5.3e-07
304.16 K, 100 kPa, Vibrating tube method | 0.0009195 ± 5.3e-07
305.16 K, 100 kPa, Vibrating tube method | 0.00092 ± 5.3e-07
306.16 K, 100 kPa, Vibrating tube method | 0.0009206 ± 5.3e-07
307.15 K, 100 kPa, Vibrating tube method | 0.0009212 ± 5.2e-07
308.15 K, 100 kPa, Vibrating tube method | 0.0009218 ± 5.2e-07
309.15 K, 100 kPa, Vibrating tube method | 0.0009223 ± 5.2e-07
310.15 K, 100 kPa, Vibrating tube method | 0.0009229 ± 5.2e-07
311.15 K, 100 kPa, Vibrating tube method | 0.0009235 ± 5.2e-07
312.15 K, 100 kPa, Vibrating tube method | 0.0009241 ± 5.2e-07
313.15 K, 100 kPa, Vibrating tube method | 0.0009247 ± 5.2e-07
